Data as given in ChEMBL document CHEMBL1201862, “PubChem BioAssay data set” (2004).
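Exposure lasted 48 hours, with cells grown in 96-well plates and compounds tested at five concentrations. GI50: concentration for 50% inhibition of growth.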 Active and inactive are the calls of the source. Cut-off read from the data, not from the text of the source: active = GI50 up to about 1.1 µM and inactive = higher.

Assays:
Test in all cases: inhibition of tumour cell growth, NCI panel, 48 h
[1] = system: CAKI-1
[2] = system: DU-145
[3] = system: TK-10
[4] = system: MDA-MB-231
[5] = system: OVCAR-8
[6] = system: UACC-257
[7] = system: SW-620
[8] = system: HCT-116
[9] = system: SK-MEL-2
[10] = system: HCC 2998
[11] = system: UACC-62
[12] = system: KM12
[13] = system: PC-3
[14] = system: U-251
[15] = system: M14
[16] = system: Malme-3M
[17] = system: NCI-H522
[18] = system: CCRF-CEM
[19] = system: HL-60

Structure (SMILES)	GI50 [1]	GI50 [2]	GI50 [3]	GI50 [4]	GI50 [5]	GI50 [6]	GI50 [7]	GI50 [8]	GI50 [9]	GI50 [10]	GI50 [11]	GI50 [12]	GI50 [13]	GI50 [14]	GI50 [15]	GI50 [16]	GI50 [17]	GI50 [18]	GI50 [19]
CC1=CSC(O)(c2ccc(Cl)cc2)c2noc(=O)n21 (configuration not stated)	> 100 µM (inactive)	> 100 µM (inactive)	> 100 µM (inactive)	> 100 µM (inactive)	97.7 µM (inactive)	24.4 µM (inactive)	> 100 µM (inactive)	53.5 µM (inactive)	85.9 µM (inactive)	14.4 µM (inactive)	44.9 µM (inactive)	> 100 µM (inactive)	71.1 µM (inactive)	> 10 µM (inactive)	> 100 µM (inactive)				
CCc1ncc(CO)n1Cc1cccc2ccccc12	> 100 µM (inactive)	> 100 µM (inactive)	99.5 µM (inactive)	> 100 µM (inactive)	> 100 µM (inactive)	81.8 µM (inactive)	> 100 µM (inactive)	> 100 µM (inactive)	> 100 µM (inactive)		> 100 µM (inactive)	98.2 µM (inactive)	> 100 µM (inactive)	> 100 µM (inactive)	> 100 µM (inactive)	> 100 µM (inactive)	> 100 µM (inactive)		
CCOC(=O)C1=C(C)NC(C)=C(C(=O)OCC)C1c1ccc(C)cc1	48.6 µM (inactive)	71.9 µM (inactive)	66.8 µM (inactive)	29.4 µM (inactive)	28.1 µM (inactive)	44.9 µM (inactive)	45.8 µM (inactive)	36.1 µM (inactive)	39.8 µM (inactive)	73.6 µM (inactive)	39.4 µM (inactive)	46.7 µM (inactive)	24.5 µM (inactive)	46.9 µM (inactive)	37.6 µM (inactive)		32.4 µM (inactive)	0.0193 µM (active)	
CC1=NN(c2cccc(Cl)c2)C(=N/c2nc3ccccc3s2)/C1=C\C=C\c1ccccc1	28.4 µM (inactive)	50.4 µM (inactive)	34.9 µM (inactive)		36.1 µM (inactive)	31.5 µM (inactive)	> 100 µM (inactive)	28.2 µM (inactive)				34.2 µM (inactive)			42.3 µM (inactive)		28.8 µM (inactive)	1.77 µM (inactive)	13.8 µM (inactive)
Nc1nc(N)nc(CCCCc2nc(N)nc(N)n2)n1	> 100 µM (inactive)	> 100 µM (inactive)	> 100 µM (inactive)	> 100 µM (inactive)	> 100 µM (inactive)	> 100 µM (inactive)	> 100 µM (inactive)	> 100 µM (inactive)	> 100 µM (inactive)		> 100 µM (inactive)	> 100 µM (inactive)	> 100 µM (inactive)	> 100 µM (inactive)	> 100 µM (inactive)	> 100 µM (inactive)	> 100 µM (inactive)	> 100 µM (inactive)	> 100 µM (inactive)
O=c1c2c3ccccc3[nH]c2c2cccc3c2n1CCC3		> 100 µM (inactive)	68.9 µM (inactive)	28.3 µM (inactive)	50.9 µM (inactive)	83 µM (inactive)	43.3 µM (inactive)	36.6 µM (inactive)		29.2 µM (inactive)	36.5 µM (inactive)	33.9 µM (inactive)	26.8 µM (inactive)	36.1 µM (inactive)	60.5 µM (inactive)	22 µM (inactive)		30.5 µM (inactive)	
Cn1c(=O)n2n(c1=O)[C@@H](c1ccccc1)[C@H]2c1ccccc1	> 100 µM (inactive)		> 100 µM (inactive)	> 100 µM (inactive)	> 100 µM (inactive)	> 100 µM (inactive)	> 100 µM (inactive)	> 100 µM (inactive)	> 100 µM (inactive)	> 100 µM (inactive)	> 100 µM (inactive)	> 100 µM (inactive)	> 100 µM (inactive)	> 100 µM (inactive)	> 100 µM (inactive)	> 100 µM (inactive)		> 100 µM (inactive)	20.6 µM (inactive)
O=C(O)CNc1c2ccccc2nc2ccccc12	> 100 µM (inactive)		> 100 µM (inactive)		> 100 µM (inactive)	> 100 µM (inactive)	> 100 µM (inactive)	78.3 µM (inactive)	> 100 µM (inactive)	> 100 µM (inactive)	> 100 µM (inactive)	> 100 µM (inactive)		> 100 µM (inactive)	> 100 µM (inactive)	> 100 µM (inactive)	49.8 µM (inactive)	> 100 µM (inactive)	48.2 µM (inactive)
Cc1cccc(/C=N/NC(=S)Nc2ccccc2)n1	5.19 µM (inactive)	4.18 µM (inactive)	2.43 µM (inactive)		2.43 µM (inactive)	1.82 µM (inactive)	5.25 µM (inactive)	3.47 µM (inactive)	3.2 µM (inactive)	5.64 µM (inactive)	3.68 µM (inactive)	4.72 µM (inactive)	6 µM (inactive)	4.32 µM (inactive)	2.49 µM (inactive)	5.04 µM (inactive)	1.48 µM (inactive)		
